The text below walks through data of patent US20130089536A1, “PHARMACEUTICAL COMPOSITION TO PREVENT AND TREAT ALZHEIMER'S DISEASE COMPRISING GCP II MUTANT” (KOREA CENTER FOR DISEASE CONTROL AND PREVENTION, priority 2011, published 2013).

Entries after “also recorded” stand apart in the source; their conditions may differ.

The test system of experiment [1] is Aβ. As to the kind of experiment: Aβ clearance activity of GCP II mutants, lysate of transfected PC3 cells, dot blotting and western blotting (6E10). In kind it is biochemical. The following applies: cell lysate 48 hr after transfection, Aβ 2 μM, overnight, FIGS. 4a, 4b. The protocol: (§1) To identify Aβ clearance activity of GCP II mutants, various mutant plasmids were transfected in PC3 cells known not to express endogenous GCP II. After 48 hr, the cell lysates were mixed with Aβ (2 μM) and incubated for overnight. The remaining Aβ peptides were detected by dot blotting and western blotting using 6E10 antibody. […] The inventors of the present invention also measured cleavage activity of GCP II on exogenously treated Aβ peptides in culture medium by ELISA. One day after transfection, 1 ng/ml Aβ was treated into the medium, followed by incubation for 8 hr at 37° C. Similarly with western blotting, residual Aβ was reduced by K699S but not by G548P (see FIG. 4c).
48 hrs later, the cell lysate was mixed with Aβ (2 μM) and incubated for overnight.
To quantify the remaining Aβ peptides, the mixture of cell lysate and Aβ (2 μM) proceeded to dot blotting and the result was analyzed by the same manner as described in Example <2-2>. 1 μl of the mixture of cell lysate and Aβ (2 μM) was dropped on nitrocellulose membrane, which was then completely dried. The dried membrane proceeded to blocking with TBS-T containing 5% nonfat dry milk at room temperature for 1 hr. Then, the membrane was incubated with anti-Aβ antibody, 6E10 (SIGNET; SIG-39300, 1:2000) in 5% nonfat dry milk at 4° C. for overnight. […] After washing three times, proteins were detected using chemiluminescent substrate.
(A western blot detects proteins with antibodies after separation by electrophoresis.)

Experiment [2] has as its system Aβ. The experiment can be described thus: Cleavage of exogenously treated Aβ in culture medium of transfected cells, ELISA. In kind it is cell-based. The following applies: 1 ng/ml Aβ one day after transfection, 8 hr at 37° C., FIG. 4c. As to the method:
as §1
Vectors encoding the hGCP II and various mutant hGCP II genes were transfected into PC3 cells in a 12-well plate. About 30 hr later, the culture medium was changed with fresh one treated with Aβ1-40 of Aβ1-42 peptide in the presence or absence of 2-PMPA, and the cells were incubated for another 8 hr. The medium was collected and assayed for residual Aβ1-40 or Aβ1-42 using ELISA kits (Invitrogen) following manufacturer's protocol. Cells transfected with the empty pcDNA3 empty vector were used as the negative control. […]
On the technique in general: An ELISA detects its analyte on a solid surface through an enzyme-linked reagent.

A short description of experiment [3]: NAAG hydrolysis by GCP II mutants, lysate of transfected H4 cells. The following applies: H4 cell lysate, [3H]-labeled NAAG 20 μM, FIG. 3a. It is filed as biochemical. As to the method:
The inventors of the present invention also investigated the changes of enzyme activity of GCP II mutant. To analyze enzyme activity of various mutants, mutant proteins with a substitution in the S1′ pocket (R210A, K699S) or S1 pocket (R536L, G548P) were transfected in H4 cells. To measure NAAG hydrolysis, cell lysate was incubated with [H]^3-labeled NAAG (20 μM) and GCP II specific […]. […] Additionally, to examine the effect of Aβ on NAAG cleavage of GCP II, rhGCP II was incubated with [H]^3-labeled NAAG (20 μM) and Aβ peptides at the same time. As a result, NAAG cleavage activity of GCP II was not affected by Aβ peptide (see FIG. 3b).
The activity of endogenous or over-expressed Glutamate carboxypeptidase II protein (GCP II) was measured as follows. Cell lysate (50 μg) was incubated with 20 μM of N-acetyl-L-aspartyl-L-[3,4-3H] glutamate (NAAG; NEN corporation) with or without 20 nM 2-PMPA, a GCP II specific inhibitor, in a total volume of 100 μl containing 50 mM HEPES and 150 mM NaCl for 1 hr at 37° C. Upon completion of the reaction, sample mixture was loaded on AG 1-X8 anion-exchange resin (Biorad) prepared in 96 well columns, followed by centrifugation at 2000 rpm for 5 min. […] All the eluted samples were mixed with 1 ml of scintillation solution (Optiphase HiSafe; Wallac) and then radioactivity was measured by scintillation counter (Wallac Inc.). […]

Experiment [4] has as its system Aβ1-40. The experiment can be described thus: Aβ1-40 cleavage by rhGCP II, residual Aβ by ELISA. In kind it is biochemical. As to conditions: rhGCP II incubated with Aβ1-40, FIG. 1a. The protocol: (§2) (a, b) rhGCP II was incubated with Aβ40 or NAAG with or without 2-PMPA or EDTA. A(340 or NAAG level was detected by ELISA or NAAG cleavage assay. (c) After lentiviral GCP II was infected into rat primary astrocytes, monomeric Aβ40 was treated to cells. And 2-PMPA was treated thereto at various doses. The Aβ40 concentration in cell growth medium was measured by ELISA assay. (d, e) Eight-month old APP Swedish/PS1E9 transgenic mice were injected intraperitoneally with 10 mg/kg of 2-PMPA or PBS 2/wk for 1 month (9 times). Membrane fractions were analyzed by NAAG and ELISA assay.
As a result, rhGCP II cleaved Aβ1-40 peptides about 80 percent compared with the control, but 2-PMPA had no effect on Aβ1-40 cleavage of GCP II (see FIG. 1a). […] To investigate the effect of 2-PMPA in the mouse brain, 2-PMPA was treated into transgenic AD model mice. The inventors of the present invention used 2-PMPA (10 mg/kg, intraperitoneally, 2×/wk for 1 month) to treat 8-month old APP Swedish/PS1Δ9 transgenic mice. Aβ1-40 and Aβ1-42 levels in the cortical membrane fractions were analyzed by ELISA and NAAG cleavage activity of GCP II was measured by NAAG assay. As a result, cleavage of NAAG was reduced about 90 percent in 2-PMPA treated mouse compared with PBS control (see FIG. 1d). However, total levels of Aβ1-40 and Aβ1-42 were not changed by the treatment of 2-PMPA (see FIG. 1e). […]

Experiment [5] relates to Aβ1-40 and Aβ1-42. As to the kind of experiment: Aβ1-40 and Aβ1-42 levels in cortical membrane fractions of 2-PMPA treated APP Swedish/PS1ΔE9 transgenic mice (ELISA). It is filed as in vivo, mouse. As to conditions: 10 mg/kg intraperitoneally, 2×/wk for 1 month, 8-month old APP Swedish/PS1ΔE9 mice, FIG. 1e. The protocol:
as §2
Vectors encoding the hGCP II and various mutant hGCP II genes were transfected into PC3 cells in a 12-well plate. About 30 hr later, the culture medium was changed with fresh one treated with Aβ1-40 of Aβ1-42 peptide in the presence or absence of 2-PMPA, and the cells were incubated for another 8 hr. […]
To investigate the effect of 2-PMPA in the mouse brain, 8-month old APP Swedish/PS1Δ9 mice transfected by the same manner as described in Example <1-6> were treated nine times with 2-PMPA (10 mg/kg, intraperitoneally, 2/wk for 1 month) or the same amount of PBS. Aβp1-40 and Aβ1-42 levels in the cortical membrane fractions were analyzed by the same manner as described in Example <1-3>. NAAG cleavage activity of GCP II was measured by the same manner as described in Example <1-4>.

The target in experiment [6] is recombinant human GCPII (rhGCP II) (Homo sapiens, UniProt Q04609). As to the kind of experiment: Effect of 2-PMPA on Aβ1-40 cleavage of rhGCP II (ELISA). It is filed as biochemical. As to conditions: 2-PMPA added at different concentrations, FIG. 1a.
Chain of recombinant human GCPII (rhGCP II) (Q04609 whole entry): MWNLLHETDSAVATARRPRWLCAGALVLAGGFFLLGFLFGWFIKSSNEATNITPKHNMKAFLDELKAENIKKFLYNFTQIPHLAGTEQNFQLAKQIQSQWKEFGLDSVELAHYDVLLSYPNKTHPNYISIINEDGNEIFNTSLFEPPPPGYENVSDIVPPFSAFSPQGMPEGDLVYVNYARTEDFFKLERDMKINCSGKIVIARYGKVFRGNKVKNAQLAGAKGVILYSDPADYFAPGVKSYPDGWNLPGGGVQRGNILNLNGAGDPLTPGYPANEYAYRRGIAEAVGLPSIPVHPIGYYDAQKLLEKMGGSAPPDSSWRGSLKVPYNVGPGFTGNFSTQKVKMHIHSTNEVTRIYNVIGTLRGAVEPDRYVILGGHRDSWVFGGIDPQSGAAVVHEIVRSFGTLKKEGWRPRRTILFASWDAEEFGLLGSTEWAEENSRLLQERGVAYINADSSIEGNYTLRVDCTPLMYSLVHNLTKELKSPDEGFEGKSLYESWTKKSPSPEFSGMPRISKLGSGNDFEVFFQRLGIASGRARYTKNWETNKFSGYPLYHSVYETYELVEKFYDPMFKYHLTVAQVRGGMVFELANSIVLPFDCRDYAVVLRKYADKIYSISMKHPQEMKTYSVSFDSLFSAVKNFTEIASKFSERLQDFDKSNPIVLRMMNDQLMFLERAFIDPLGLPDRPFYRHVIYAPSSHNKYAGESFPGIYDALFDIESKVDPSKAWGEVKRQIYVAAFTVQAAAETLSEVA
Experiment [7] has as its target T1, lentiviral GCP II (Homo sapiens, UniProt Q04609).
T1 construct: host or cells: rat primary astrocytes (lentiviral infection)
It is filed as cell-based.

Experiment [8] deals with GCP II (Homo sapiens, UniProt Q04609). The experiment can be described thus: NAAG cleavage assay with or without 2-PMPA. The following applies: 20 μM [3H]NAAG, 20 nM 2-PMPA, 1 hr at 37° C.; FIG. 1b. In kind it is biochemical.
Chain of GCP II (Q04609 whole entry): as above
Protocol: The activity of endogenous or over-expressed Glutamate carboxypeptidase II protein (GCP II) was measured as follows. Cell lysate (50 μg) was incubated with 20 μM of N-acetyl-L-aspartyl-L-[3,4-3H] glutamate (NAAG; NEN corporation) with or without 20 nM 2-PMPA, a GCP II specific inhibitor, in a total volume of 100 μl containing 50 mM HEPES and 150 mM NaCl for 1 hr at 37° C. Upon completion of the reaction, sample mixture was loaded on AG 1-X8 anion-exchange resin (Biorad) prepared in 96 well columns, followed by centrifugation at 2000 rpm for 5 min. The resin bound with the sample mixture was eluted with 0.5 mM formate (100 ml) and centrifuged at 2000 rpm for 5 min. All the eluted samples were mixed with 1 ml of scintillation solution (Optiphase HiSafe; Wallac) and then radioactivity was measured by scintillation counter (Wallac Inc.).

T1 sequence (Q04609 whole entry): as above

With “G548P: GCP II mutant protein with a substitution in the S1 pocket”, the “Aβ cleavage activity compared with wild type” value in experiment [1] is reported as “lost Aβ cleavage activity; also recorded: did not; also recorded: lost its Aβ clearance activity”. For the same molecule, in experiment [2], the “residual Aβ in culture medium” value is listed as “not”. Also, the “activity of NAAG hydrolysis maintained compared with wild type GCP II” value in experiment [3] (listed as R548P) is given as “about 40%”.

Turning to “rhGCP II: recombinant human GCPII (glutamate carboxypeptidase II), wild type”, the “Aβ1-40 peptide cleaved compared with control” value in experiment [4] is on record as “about 80%”.

For “K699S: GCP II mutant: 699th amino acid Lysine replaced with Serine, SEQ ID. NO: 2; S1′ pocket mutant”, the “Aβ cleavage activity compared with wild type” value in experiment [1] is on record as “higher Aβ cleavage activity than the wild type; also recorded: cleaved; also recorded: cleaved Aβ more than wild type”. Besides, the “residual Aβ in culture medium” value in experiment [2] is given as “reduced”. Moreover, the “activity of NAAG hydrolysis (in words)” value in experiment [3] is “completely lost; also recorded: did not cleave”.

As to `O=C(O)CCC(CP(=O)(O)O)C(=O)O` (stereo not drawn) [2-PMPA, 2-(Phosphonomethyl) pentanedioic acid], in experiment [5], the “total level of Aβ1-40” value is recorded as “not changed” and the “total level of Aβ1-42” value is “not changed”. In experiment [6], the “effect on Aβ1-40 cleavage of rhGCP II” value is on record as “no effect”. The “Aβ1-40 cleavage of lentiviral GCP II” value in experiment [7] is listed as “did not block”. Besides, in experiment [8], the “hydrolysis of NAAG by GCP II” value is “completely blocked”.
